Our source for the melting point and IC50 values is patent publication US6441021B1, “Sulfonated amino acid derivatives and metalloproteinase inhibitors containing the same” (Shionogi & Co., Ltd., priority 1996, dated 2002).

Like-named read-outs stand apart in the source and are kept apart here.

Series [1] addresses T1, MMP-9 (92 kDa, gelatinase B; type IV collagenase) (Homo sapiens, UniProt P14780).
T1 construct: endogenous in cells; enzyme purified from the conditioned medium
Nature of the series: Assay of type IV collagenase inhibitors: activated MMP-9 with type IV collagenase activity kit substrate, fluorescent intensity. The series is classed as biochemical. The method, then: (1) Isolation and Purification of MMP-9 (92 kDa, Gelatinase B)
Type IV collagenase (MMP-9) was purified according to the methods descrived in the following literature.
Subsequently, activated MMP-9 was obtained by treating the pro-MMP-9 with trypsin.
(2) Assay Methods of Type IV Collagenase Inhibitors
Collagenase assay was performed using the activated MMP-9 described above and the substrate supplied in the type IV collagenase activity kit (YAGAI, inc.), according to the manufacturer's protocol. The following 4 assays are performed per compound (inhibitor).
(A) substrate (type IV collagenase), enzyme (MMP-9), inhibitor
(B) substrate (type IV collagenase), inhibitor
(C) substrate (type IV collagenase), enzyme (MMP-9)
(D) substrate (type IV collagenase)
According to the manufacturer's protocol, fluorescent intensity was measured and percent inhibition was determined by the following equation.
Inhibition (%)={1−(A−B)/(C−D)}×100

Setting [2] is: inhibition of type IV collagenase (MMP-9), concentration at which percent inhibition reaches 50%.

T1 sequence (P14780 107-707 limits assumed): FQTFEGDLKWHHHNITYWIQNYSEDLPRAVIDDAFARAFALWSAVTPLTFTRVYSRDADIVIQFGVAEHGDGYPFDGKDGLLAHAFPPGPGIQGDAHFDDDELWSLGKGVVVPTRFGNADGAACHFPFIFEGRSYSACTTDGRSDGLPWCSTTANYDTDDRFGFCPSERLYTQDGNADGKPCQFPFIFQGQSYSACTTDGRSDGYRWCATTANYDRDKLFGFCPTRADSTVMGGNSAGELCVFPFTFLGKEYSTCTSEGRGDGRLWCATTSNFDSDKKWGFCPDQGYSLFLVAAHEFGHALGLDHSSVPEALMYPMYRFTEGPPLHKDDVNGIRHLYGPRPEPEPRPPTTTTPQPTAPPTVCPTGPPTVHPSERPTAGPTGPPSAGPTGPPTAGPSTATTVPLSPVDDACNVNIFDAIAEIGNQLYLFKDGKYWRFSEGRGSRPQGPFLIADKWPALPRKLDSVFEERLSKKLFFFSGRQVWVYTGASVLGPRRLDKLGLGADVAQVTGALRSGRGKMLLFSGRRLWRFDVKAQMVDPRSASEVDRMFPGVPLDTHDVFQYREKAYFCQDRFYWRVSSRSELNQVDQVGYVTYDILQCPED

As for `Cc1ccc(C(=O)Nc2ccc(S(=O)(=O)N[C@@H](C(=O)O)C(C)C)cc2)cc1` (hydrate or solvate) [Example 196], the melting point was in the range of 227 to 229 °C. `CC(C)[C@@H](NS(=O)(=O)c1ccc(NC(=O)c2ccccc2)cc1)C(=O)O` (hydrate or solvate) [Example 199] returned a melting point of 226 to 227 °C. Regarding `COc1ccc(C(=O)Nc2ccc(S(=O)(=O)N[C@@H](C(=O)O)C(C)C)cc2)cc1` (hydrate or solvate) [Example 200], the melting point was 220 to 221 °C. `CC(C)[C@@H](NS(=O)(=O)c1ccc(NC(=O)c2ccc([N+](=O)[O-])cc2)cc1)C(=O)O` (hydrate or solvate) [Example 201]: the melting point lay in the range of 240 to 242 °C. Turning to `COc1ccc(C(=O)Nc2ccc(S(=O)(=O)N[C@@H](C(=O)O)C(C)(C)C)cc2)cc1` (hydrate or solvate) [Example 203], the melting point lay in the range of 214 to 216 °C. On to `O=C(O)C(Cc1cccc2ccccc12)NS(=O)(=O)c1ccc(-c2nnn(-c3ccccc3)n2)cc1` (stereo not shown) (hydrate or solvate) [Example 218], for which the melting point was 225 to 227 °C. Take `O=Cn1cc(C[C@@H](NS(=O)(=O)c2ccc(-c3nnn(-c4ccccc4)n3)cc2)C(=O)O)c2ccccc21` (hydrate or solvate) [Example 219]: the melting point was in the range of 111 to 114 °C.

In turn, `CCC(C)[C@@H](NS(=O)(=O)c1ccc(-c2nnn(-c3ccc(OC)cc3)n2)cc1)C(=O)O` (stereo partly shown) (hydrate or solvate) [Example 222] showed a melting point of 204 to 207 °C. As to `CC(C)[C@@H](NS(=O)(=O)c1ccc(-c2nnn(-c3ccc(Br)cc3)n2)cc1)C(=O)O` (hydrate or solvate) [Example 225], the melting point fell in the range of 227 to 228 °C. Turning to `O=C(O)[C@@H](Cc1ccccc1)NS(=O)(=O)c1ccc(-c2nnn(-c3ccc([N+](=O)[O-])cc3)n2)cc1` (hydrate or solvate) [Example 230], the melting point was in the range of 190 to 191 °C. Take `O=C(O)[C@@H](Cc1ccccc1)NS(=O)(=O)c1ccc(-c2nnn(-c3ccc(F)cc3)n2)cc1` (hydrate or solvate) [Example 231]: the melting point lay in the range of 205 to 207 °C. The same measure, in the same setting: with `O=C(O)[C@@H](Cc1ccccc1)NS(=O)(=O)c1ccc(-c2nnn(-c3ccc(Cl)cc3)n2)cc1` (hydrate or solvate) [Example 232] the figure was 204 to 206 °C.

Turning to `Cc1ccc(-n2nnc(-c3ccc(S(=O)(=O)N[C@H](Cc4ccccc4)C(=O)O)cc3)n2)cc1` (hydrate or solvate) [Example 233], the melting point lay within 226 to 227 °C. As to `COc1ccc(-n2nnc(-c3ccc(S(=O)(=O)N[C@H](Cc4ccccc4)C(=O)O)cc3)n2)cc1` (hydrate or solvate) [Example 234], the melting point lay within 214 to 216 °C. In the case of `N#Cc1ccc(-n2nnc(-c3ccc(S(=O)(=O)N[C@H](Cc4ccccc4)C(=O)O)cc3)n2)cc1` (hydrate or solvate) [Example 235], the melting point lay within 190 to 192 °C. `O=C(O)[C@@H](Cc1ccccc1)NS(=O)(=O)c1ccc(-c2nnn(-c3ccc(C4CCCCC4)cc3)n2)cc1` (hydrate or solvate) [Example 237]: the melting point lay within 225 to 227 °C. For `O=C(O)[C@@H](Cc1c[nH]c2ccccc12)NS(=O)(=O)c1ccc(-c2nnn(-c3ccc(Br)cc3)n2)cc1` (hydrate or solvate) [Example 240], the melting point lay in the range of 205 to 207 °C. Compound `Cc1ccc(-n2nnc(-c3ccc(S(=O)(=O)N[C@H](Cc4c[nH]c5ccccc45)C(=O)O)cc3)n2)cc1` (hydrate or solvate) [Example 241] showed a melting point of 199 to 201 °C. `Cc1ccc(-n2nnc(-c3ccc(S(=O)(=O)N[C@@H](C(=O)O)C(C)C)cc3)n2)cc1` (hydrate or solvate) [Example 242] yielded a melting point of 206 to 207 °C.

`CC(C)[C@@H](NS(=O)(=O)c1ccc(-c2nnn(-c3ccc(F)cc3)n2)cc1)C(=O)O` (hydrate or solvate) [Example 243]: the melting point was in the range of 208 to 209 °C. In turn, `CSc1ccc(-n2nnc(-c3ccc(S(=O)(=O)N[C@@H](C(=O)O)C(C)C)cc3)n2)cc1` (hydrate or solvate) [Example 245] yielded a melting point of 194 to 195 °C. In the case of `CSc1ccc(-n2nnc(-c3ccc(S(=O)(=O)N[C@H](Cc4ccccc4)C(=O)O)cc3)n2)cc1` (hydrate or solvate) [Example 246], the melting point fell in the range of 222 to 224 °C. The compound `CSc1ccc(-n2nnc(-c3ccc(S(=O)(=O)N[C@H](Cc4c[nH]c5ccccc45)C(=O)O)cc3)n2)cc1` (hydrate or solvate) [Example 247] gave a melting point of 213 to 216 °C. For the compound `O=C(Nc1ccc(S(=O)(=O)N[C@H](Cc2c[nH]c3ccccc23)C(=O)O)cc1)c1ccccc1` [Example 177], the melting point lay within 215 to 217 °C. Besides, half-maximal inhibition in series [1] (setting [2]) (IC50) was put at 0.684 µM.

The compound `Nc1ccc(C(=O)Nc2ccc(S(=O)(=O)N[C@H](Cc3c[nH]c4ccccc34)C(=O)O)cc2)cc1` [Example 179] came in with a melting point of 216 to 218 °C. This compound yielded a concentration for half-maximal inhibition (IC50) in series [1] of 2.36 µM. In turn, `COc1ccc(C(=O)Nc2ccc(S(=O)(=O)N[C@H](Cc3ccccc3)C(=O)O)cc2)cc1` [Example 186] had a melting point of 237 to 239 °C. This compound also showed an IC50 in series [1] of 0.0982 µM. In turn, `O=C(Nc1ccc(S(=O)(=O)N[C@H](Cc2ccccc2)C(=O)O)cc1)c1ccc([N+](=O)[O-])cc1` [Example 187] displayed a melting point of 235 to 239 °C. Further, in series [1], the IC50 came out at 0.177 µM.

`O=C(Nc1ccc(S(=O)(=O)N[C@H](Cc2ccccc2)C(=O)O)cc1)c1ccccc1` [Example 188] yielded a melting point of 114 to 115 °C. Further, half-maximal inhibition in series [1] (setting [2]) (IC50) required 0.843 µM. `O=C(Nc1ccc(S(=O)(=O)N[C@H](Cc2ccccc2)C(=O)O)cc1)c1ccc(Br)cc1` [Example 189] registered a melting point of 242 to 243 °C. In series [1], this compound registered an IC50 of 0.0375 µM. With `Cc1ccc(C(=O)Nc2ccc(S(=O)(=O)N[C@H](Cc3ccccc3)C(=O)O)cc2)cc1` [Example 190], the melting point fell in the range of 242 to 244 °C. Also, the 50% inhibitory concentration (IC50) in series [1] (setting [2]) worked out at 0.0597 µM.

On to `CSc1ccc(C(=O)Nc2ccc(S(=O)(=O)N[C@H](Cc3ccccc3)C(=O)O)cc2)cc1` [Example 191], for which the melting point is 232 to 235 °C. In series [1], this compound gave a 50% inhibitory concentration (IC50) of 0.0095 µM. Compound `O=C(Nc1ccc(S(=O)(=O)N[C@H](Cc2ccccc2)C(=O)O)cc1)c1ccc(F)cc1` [Example 192] had a melting point of 218 to 220 °C. Moreover, the IC50 in series [1] was 0.324 µM. For `O=C(Nc1ccc(S(=O)(=O)N[C@H](Cc2ccccc2)C(=O)O)cc1)c1ccc(Cl)nc1` [Example 193], the melting point was 201 to 203 °C. The same compound yielded an IC50 in series [1] of 0.722 µM. As to `CSc1ccc(C(=O)Nc2ccc(S(=O)(=O)N[C@@H](C(=O)O)C(C)C)cc2)cc1` [Example 197], the melting point fell in the range of 231 to 234 °C. In addition, the concentration for half-maximal inhibition (IC50) in series [1] (setting [2]) is 0.0161 µM. As for `CC(C)[C@@H](NS(=O)(=O)c1ccc(NC(=O)c2ccc(F)cc2)cc1)C(=O)O` [Example 198], the melting point lay in the range of 235 to 236 °C. Moreover, the 50% inhibitory concentration (IC50) in series [1] amounted to 0.493 µM. With `CC(C)[C@@H](NS(=O)(=O)c1ccc(NC(=O)c2ccc(Br)cc2)cc1)C(=O)O` [Example 202], the melting point was in the range of 229 to 230 °C. Further, the IC50 in series [1] turned out to be 0.0114 µM. `Cc1cnc(C(=O)Nc2ccc(S(=O)(=O)N[C@H](Cc3ccccc3)C(=O)O)cc2)cn1` [Example 204] gave a melting point of 236 to 237 °C. Besides, the midpoint of inhibition in series [1], the IC50, lay at 3.95 µM.

With `Cn1cc(CC(NS(=O)(=O)c2ccc(-c3nnn(-c4ccccc4)n3)cc2)C(=O)O)c2ccccc21` (stereo not shown) [Example 212], the melting point lay in the range of 199 to 202 °C. In addition, in series [1], the half-inhibitory concentration (IC50) turned out to be 0.393 µM. With `O=C(O)C(Cc1c[nH]c2ccc(F)cc12)NS(=O)(=O)c1ccc(-c2nnn(-c3ccccc3)n2)cc1` (stereo not shown) [Example 213], the melting point fell in the range of 224 to 225 °C. The compound further registered a 50% inhibitory concentration (IC50) in series [1] of 0.128 µM.

Compound `CC(C)C[C@@H](NS(=O)(=O)c1ccc(-c2nnn(-c3ccccc3)n2)cc1)C(=O)O` [Example 214] registered a melting point of 202 to 204 °C. Half-maximal inhibition in series [1] (IC50) required 0.832 µM.

On to `CC(C)[C@@H](NS(=O)(=O)c1ccc(-c2nnn(-c3ccccc3)n2)cc1)C(=O)O` [Example 215], for which the melting point fell in the range of 221 to 222 °C. Also, it took 0.11 µM to reach half-maximal inhibition in series [1] (setting [2]) (IC50). In turn, `Cc1cccc2[nH]cc(CC(NS(=O)(=O)c3ccc(-c4nnn(-c5ccccc5)n4)cc3)C(=O)O)c12` (stereo not shown) [Example 216] yielded a melting point of 145 to 148 °C. The IC50 in series [1] was 0.107 µM.

`COc1ccc(-n2nnc(-c3ccc(S(=O)(=O)N[C@H](Cc4c[nH]c5ccccc45)C(=O)O)cc3)n2)cc1` [Example 220] gave a melting point of 195 to 196 °C. Compound `CCC(C)[C@@H](NS(=O)(=O)c1ccc(-c2nnn(-c3ccccc3)n2)cc1)C(=O)O` (stereo partly shown) [Example 221] gave a melting point of 205 to 207 °C. For the same compound, the half-inhibitory concentration (IC50) in series [1] turned out to be 0.316 µM.

Consider `CC(C)[C@@H](NS(=O)(=O)c1ccc(-c2nnn(-c3ccc(O)cc3)n2)cc1)C(=O)O` [Example 223], for which the melting point was 190 °C (dec.). In addition, it took 0.349 µM to reach half-maximal inhibition in series [1] (IC50). `COc1ccc(-n2nnc(-c3ccc(S(=O)(=O)N[C@@H](C(=O)O)C(C)(C)C)cc3)n2)cc1` [Example 226] came in with a melting point of 204 to 207 °C. In series [1], this compound registered an IC50 of 0.166 µM.

In the case of `O=C(O)[C@@H](Cc1c[nH]c2ccccc12)NS(=O)(=O)c1ccc(-c2nnn(-c3ccc(F)cc3)n2)cc1` [Example 227], the melting point lay within 203 to 205 °C. The same compound displayed a concentration for half-maximal inhibition (IC50) in series [1] of 0.0198 µM.
